{"source": "paper PMC9989278", "about": "“Characterization of substrates and inhibitors of the human heterodimeric transporter 4F2hc-LAT1 using purified protein and the scintillation proximity radioligand binding assay” (Frontiers in Physiology, 2023)", "key": {"human 4F2hc-LAT1 [1]": {"biological_target": "T1, human 4F2hc-LAT1 (Homo sapiens, UniProt Q01650)", "T1 construct": "Strep-tag (N); made in house; host or cells: Pichia pastoris strain KM71H", "T1 sequence (Q01650 whole entry)": "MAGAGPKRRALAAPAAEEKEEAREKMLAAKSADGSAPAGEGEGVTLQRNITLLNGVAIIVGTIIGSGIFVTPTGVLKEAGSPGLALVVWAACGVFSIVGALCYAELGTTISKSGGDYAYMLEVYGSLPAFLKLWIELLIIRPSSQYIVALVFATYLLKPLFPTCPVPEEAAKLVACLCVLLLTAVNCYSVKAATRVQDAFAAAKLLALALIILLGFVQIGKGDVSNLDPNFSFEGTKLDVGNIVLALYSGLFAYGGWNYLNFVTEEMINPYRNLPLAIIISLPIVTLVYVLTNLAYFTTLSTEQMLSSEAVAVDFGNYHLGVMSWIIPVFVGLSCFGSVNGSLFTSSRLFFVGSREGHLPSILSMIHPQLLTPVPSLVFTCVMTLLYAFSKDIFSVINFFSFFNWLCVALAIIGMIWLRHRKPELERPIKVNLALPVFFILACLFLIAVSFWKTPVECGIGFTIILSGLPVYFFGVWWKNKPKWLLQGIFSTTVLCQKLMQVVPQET", "T1 sequence (P08195 102-630 partner)": "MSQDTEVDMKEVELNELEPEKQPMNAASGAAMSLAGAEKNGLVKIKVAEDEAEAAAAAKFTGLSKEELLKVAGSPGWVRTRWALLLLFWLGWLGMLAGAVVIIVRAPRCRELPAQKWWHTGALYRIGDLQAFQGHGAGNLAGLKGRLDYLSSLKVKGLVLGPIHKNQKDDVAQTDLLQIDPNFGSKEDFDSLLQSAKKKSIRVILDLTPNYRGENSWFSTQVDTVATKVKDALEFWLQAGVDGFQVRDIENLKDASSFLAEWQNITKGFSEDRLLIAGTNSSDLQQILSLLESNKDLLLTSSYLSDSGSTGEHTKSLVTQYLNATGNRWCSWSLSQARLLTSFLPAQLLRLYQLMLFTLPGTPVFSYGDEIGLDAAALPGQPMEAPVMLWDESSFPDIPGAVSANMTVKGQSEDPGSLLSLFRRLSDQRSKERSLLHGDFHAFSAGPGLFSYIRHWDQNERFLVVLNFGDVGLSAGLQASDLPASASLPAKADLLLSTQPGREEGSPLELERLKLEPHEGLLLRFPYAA", "test": "Scintillation proximity radioligand binding assay (SPA), [3H]L-leucine competition on purified protein", "settings": "for Binding of [3H]L-Leucine (%), residual radioligand binding (RRB) / Binding of [3H]L-Leucine (%), residual radioligand binding: normalized to control without competitor; for Binding of [3H]L-Leucine (%), residual radioligand binding: mean of three experiments; for pKi: heterologous competition with [3H]L-leucine, read-out: Ki", "method": "Purified, GDN-solubilized human 4F2hc-LAT1 was attached via the His-tag to polyvinyltolune (PVT) copper His-tag SPA beads (Perkin Elmer) and the protein-bound [^3H]L-leucine quantified using a scintillation counter (a detailed description of SPA with 4F2hc-LAT1 is given in the methodological publication by ([Kantipudi et al., 2021])). Briefly, experiments were conducted in 96-well plates and per well a reaction volume of 50 µL containing 250 µg PVT-SPA-beads, 1.75 µg 4F2hc-LAT1 protein, 2.5 μM L-leucine spiked with 0.5 µCi [^3H]L-leucine (ARC/Anawa, 100 Ci/mmol, 1 mCi/ml) plus a condition-specific substance. All components were dissolved in SPA-Buffer (100 mM BTP pH 8, 150 mM NaCl, 10% (v/v) glycerol, 0.5% (w/v) GDN). For some condition-specific substances (i.e., the thyroid hormones), 20 min sonication in a water bath at 4°C was necessary to dissolve them at 10× concentration in SPA-Buffer. Per reaction, 5 µL of a 10× stock solution of the condition-specific substance was placed in a well and diluted with 45 µL of a master mix containing the remaining components. For determining the substrate specificities (Figure 1), the twenty proteogenic L-amino acids and D-leucine were used as competitors at a final concentration of 250 µM. For determining the K D of L-leucine (Figure 2A) and K i of L-histidine (Figure 2B), homologous (L-leucine) and heterologous (L-histidine) substrate competition was applied at concentrations ranging from 0.01 to 1600 µM. […] The binding specificities of structural analogues of L-leucine (Figure 3) and L-histidine (Figure 4) were tested at a final competitor concentration of 250 µM. […] To avoid minor unspecific binding of radioactive L-leucine to the beads, the master mix was created in a specific procedure: SPA-beads were first mixed with the unlabeled L-leucine and shaken for 2 h at 4°C before adding the remaining components (protein last). For background subtraction in the bar graph experiments, a no-protein control was included using protein-free master mix (i.e., containing buffer instead of protein solution). The plate was shortly mixed by shaking and incubated at 4°C for ∼18 h before the signals were counted using a microplate scintillation counter (Trilux Microbeta, Perkin Elmer). […] Three experiments with protein from at least two different purifications were performed, each at least in triplicates.\nData were analyzed with Prism 6 (GraphPad Software). […] Each experiment was done with sample number of at least three (triplicate). Data of three independent experiments were merged by adding the normalized data to a common data set, which was used for curve fitting. For data analysis of the bar graphs, the signal of the no-protein control was subtracted from the transporter signal to obtain the net binding signal."}, "recombinant human LAT1": {"test_system": "recombinant human LAT1", "parameters": "method as in Napolitano et al., 2015", "settings": "proteoliposomes, ref Napolitano et al., 2015, cited from earlier work"}, "human 4F2hc-LAT1 [2]": {"biological_target": "T1, human 4F2hc-LAT1", "settings": "[3H]L-leucine uptake inhibition, P. pastoris cells; ref Kantipudi et al., 2020; cited from earlier work"}, "[3]": {"settings": "Figure 4, L-histidine analogues, competitor 250 µM"}, "[4]": {"settings": "Figure 3, L-leucine analogues, competitor 250 µM"}}, "note": "pIC50, pKi: −log10 of the molar value. Where two headings read alike, the source gives them in different places."}
{"smiles": "Cn1cnc(C[C@H](N)C(=O)O)c1", "note": "[1-Methyl L-Histidine, 1-methyl-L-histidine]", "values": [{"measurement": "Binding of [3H]L-Leucine (%), residual radioligand binding (RRB)", "setting": "human 4F2hc-LAT1 [1]; [3]", "result": 59, "unit": "%"}, {"measurement": "Binding of [3H]L-Leucine (%), residual radioligand binding (RRB)", "setting": "human 4F2hc-LAT1 [1]; Figure 4, L-histidine analogues, competitor 250 µM, listed as 1-methyl-L-histidine", "result": "59–64%"}]}
{"smiles": "Cn1cncc1C[C@H](N)C(=O)O", "note": "[3-Methyl L-Histidine, 3-methyl-L-histidine]", "values": [{"measurement": "Binding of [3H]L-Leucine (%), residual radioligand binding (RRB)", "setting": "human 4F2hc-LAT1 [1]; [3]", "result": 64, "unit": "%"}, {"measurement": "Binding of [3H]L-Leucine (%), residual radioligand binding (RRB)", "setting": "human 4F2hc-LAT1 [1]; Figure 4, L-histidine analogues, competitor 250 µM, listed as 3-methyl-L-histidine", "result": "59–64%"}]}
{"smiles": "C[C@H](N)C(=O)O", "note": "[Ala]", "values": [{"measurement": "Binding of [3H]L-Leucine (%), residual radioligand binding", "setting": "human 4F2hc-LAT1 [1]; Figure 1, competitor 250 µM", "result": 36, "unit": "%"}]}
{"smiles": "N=C(N)NCCC[C@H](N)C(=O)O", "note": "[Arg]", "values": [{"measurement": "Binding of [3H]L-Leucine (%), residual radioligand binding", "setting": "human 4F2hc-LAT1 [1]; Figure 1, competitor 250 µM", "result": 68, "unit": "%"}]}
{"smiles": "NC(=O)C[C@H](N)C(=O)O", "note": "[Asn]", "values": [{"measurement": "Binding of [3H]L-Leucine (%), residual radioligand binding", "setting": "human 4F2hc-LAT1 [1]; Figure 1, competitor 250 µM", "result": 35, "unit": "%"}]}
{"smiles": "N[C@@H](CC(=O)O)C(=O)O", "note": "[Asp]", "values": [{"measurement": "Binding of [3H]L-Leucine (%), residual radioligand binding", "setting": "human 4F2hc-LAT1 [1]; Figure 1, competitor 250 µM", "result": 45, "unit": "%"}]}
{"smiles": "NC1(C(=O)O)CC2CCC1C2", "note": "(stereo not drawn) [BCH, 2-aminobicyclo-(2,2,1)-heptane-2-carboxylic acid]", "values": [{"measurement": "pKi", "setting": "human 4F2hc-LAT1 [1]; Figure 2B, C, E, F", "result": 4.09}]}
{"smiles": "N[C@@H](CS)C(=O)O", "note": "[Cys]", "values": [{"measurement": "Binding of [3H]L-Leucine (%), residual radioligand binding", "setting": "human 4F2hc-LAT1 [1]; Figure 1, competitor 250 µM", "result": 35, "unit": "%"}]}
{"smiles": "CC(C)C[C@@H](N)C(=O)O", "note": "[D-Leu, D-leucine]", "values": [{"measurement": "Binding of [3H]L-Leucine (%), residual radioligand binding", "setting": "human 4F2hc-LAT1 [1]; Figure 1, competitor 250 µM", "result": 52, "unit": "%"}, {"measurement": "inhibition of [3H]L-leucine binding", "setting": "human 4F2hc-LAT1 [1]; competitor 250 µM, Figure 1", "result": "about 50%"}]}
{"smiles": "NC(=O)CC[C@H](N)C(=O)O", "note": "[Gln, L-glutamine]", "values": [{"measurement": "Binding of [3H]L-Leucine (%), residual radioligand binding", "setting": "human 4F2hc-LAT1 [1]; Figure 1, competitor 250 µM", "result": 29, "unit": "%"}]}
{"smiles": "N[C@@H](CCC(=O)O)C(=O)O", "note": "[Glu]", "values": [{"measurement": "Binding of [3H]L-Leucine (%), residual radioligand binding", "setting": "human 4F2hc-LAT1 [1]; Figure 1, competitor 250 µM", "result": 90, "unit": "%"}]}
{"smiles": "NCC(=O)O", "note": "[Gly]", "values": [{"measurement": "Binding of [3H]L-Leucine (%), residual radioligand binding", "setting": "human 4F2hc-LAT1 [1]; Figure 1, competitor 250 µM", "result": 44, "unit": "%"}]}
{"smiles": "Nc1cc(COc2c(Cl)cc(C[C@H](N)C(=O)O)cc2Cl)c2oc(-c3ccccc3)nc2c1", "note": "[JPH203, (S)-2-amino-3-(4-((5-amino-2-phenylbenzo [d]oxazol-7-yl)-methoxy)-3,5-dichlorophenyl)-propanoic acid]", "values": [{"measurement": "pKi", "setting": "human 4F2hc-LAT1 [1]; Figure 2D", "result": 7.10}]}
{"smiles": "CC[C@H](N)C(=O)O", "note": "[L-2-Aminobutyric Acid, L-2-aminobutyric acid]", "values": [{"measurement": "Binding of [3H]L-Leucine (%), residual radioligand binding (RRB)", "setting": "human 4F2hc-LAT1 [1]; [4]", "result": 45, "unit": "%"}, {"measurement": "Binding of [3H]L-Leucine (%), residual radioligand binding (RRB)", "setting": "human 4F2hc-LAT1 [1]; Figure 3, L-leucine analogues, competitor 250 µM, listed as L-2-aminobutyric acid", "result": "37–45%"}]}
{"smiles": "COC(=O)[C@@H](N)Cc1c[nH]cn1", "note": "[L-Histidine Methyl Ester, L-histidine-methyl ester]", "values": [{"measurement": "Binding of [3H]L-Leucine (%), residual radioligand binding (RRB)", "setting": "human 4F2hc-LAT1 [1]; [3]", "result": 102, "unit": "%"}, {"measurement": "binding / inhibition of [3H]L-leucine binding to 4F2hc-LAT1, in words", "setting": "human 4F2hc-LAT1 [1]; competitor 250 µM", "result": "no significant binding"}]}
{"smiles": "N[C@@H](Cc1c[nH]cn1)C(=O)O", "note": "[L-Histidine, L-histidine]", "values": [{"measurement": "Km", "setting": "recombinant human LAT1; external side, read-out: external Km", "result": 24.6, "unit": "µM"}, {"measurement": "Km", "setting": "recombinant human LAT1; internal side, read-out: internal Km", "result": 2800, "unit": "µM"}, {"measurement": "Binding of [3H]L-Leucine (%), residual radioligand binding", "setting": "human 4F2hc-LAT1 [1]; Figure 1, competitor 250 µM", "result": 2, "unit": "%"}, {"measurement": "Binding of [3H]L-Leucine (%), residual radioligand binding (RRB)", "setting": "human 4F2hc-LAT1 [1]; [3]", "result": 1, "unit": "%"}, {"measurement": "binding / inhibition of [3H]L-leucine binding to 4F2hc-LAT1, in words", "setting": "human 4F2hc-LAT1 [1]; competitor 250 µM", "result": "inhibited strongly"}, {"measurement": "pKi", "setting": "human 4F2hc-LAT1 [1]; Figure 2B, C, E, F", "result": 4.55}, {"measurement": "pIC50", "setting": "human 4F2hc-LAT1 [2]", "result": 4.64}]}
{"smiles": "CC[C@H](C)[C@H](N)C(=O)O", "note": "[L-Isoleucine, L-isoleucine]", "values": [{"measurement": "Binding of [3H]L-Leucine (%), residual radioligand binding", "setting": "human 4F2hc-LAT1 [1]; Figure 1, competitor 250 µM", "result": "19-29%"}, {"measurement": "Binding of [3H]L-Leucine (%), residual radioligand binding", "setting": "human 4F2hc-LAT1 [1]; Figure 1, competitor 250 µM, listed as Ile", "result": 22, "unit": "%"}, {"measurement": "Binding of [3H]L-Leucine (%), residual radioligand binding (RRB)", "setting": "human 4F2hc-LAT1 [1]; [4]", "result": 28, "unit": "%"}]}
